{"source": "patent US5846720A", "about": "“Methods of determining chemicals that modulate expression of genes associated with cardiovascular disease” (Oncogene Science, Inc., priority 1996, dated 1998)", "key": {"beta-actin mRNA": {"system": "beta-actin mRNA", "experiment": "Northern blot of actin mRNA (control)", "format": "cell-based, human", "conditions": "U5637 cells", "experimental": "Total cellular RNA was isolated from cells following incubation with chemicals as described above and electrophoresed in a 1% Agarose Formaldehyde gel. The RNA was transferred to Duralon-UV nylon filters (Stratagene, La Jolla, Calif.) using the manufacturer's recommended protocol. The filters were prehybridized for 4 hours (prehybridizing solution=5× SSC, 50 mM sodium pyrophosphate, 10× Denhardt's solution, 10% dextran sulfate, 7% SDS and 250 μg/ml denatured ssDNA) and then hybridized in the same solution for 16 hours at 65° C. in the presence of specific probes. The G-CSF probe was a 0.6 kb AflII to Xhol fragment which contained most of exon 5 of the human G-CSF gene. The β-actin (Oncor, Gaithersburg, Md.) probe was used as a control probe to normalize for the total amount of RNA. The probes were labeled with alpha-32P dCTP using a random primed DNA labeling kit (Amersham, Arlington, Ill.). Following hybridization, filters were washed three times at room temperature with 1× SSC, 0.13% SDS and three times at 65° C. with 0.2× SSC, 0.1% SDS. Filters were first probed with the G-CSF specific probe and then reprobed with β-actin-probe. […] Bands were excised and counted in a liquid scintillation counter (LKB, Gaithersburg, Md.), and counts obtained with the G-CSF specific probe were normalized relative to the counts obtained with the β-Actin specific probe. […]"}, "G-CSF promoter [1]": {"system": "G-CSF promoter", "experiment": "G-CSF promoter/luciferase reporter assay (high-throughput screen I), G21 cells", "conditions": "for activation of the G-CSF promoter (dose response): G21 cells; for EC50: read-out: ED50 (concentration of chemical resulting in 50% maximal stimulation), G-CSF reporter cell line G21, range over the three chemicals; for G-CSF promoter induction: G21, 7 hours, serum-free"}, "G-CSF mRNA [2]": {"system": "G-CSF mRNA", "experiment": "Northern blot of endogenous G-CSF mRNA", "format": "cell-based, human", "conditions": "U5637 cells, relative to DMSO", "experimental": "Total cellular RNA was isolated from cells following incubation with chemicals as described above and electrophoresed in a 1% Agarose Formaldehyde gel. The RNA was transferred to Duralon-UV nylon filters (Stratagene, La Jolla, Calif.) using the manufacturer's recommended protocol. The filters were prehybridized for 4 hours (prehybridizing solution=5× SSC, 50 mM sodium pyrophosphate, 10× Denhardt's solution, 10% dextran sulfate, 7% SDS and 250 μg/ml denatured ssDNA) and then hybridized in the same solution for 16 hours at 65° C. in the presence of specific probes. The G-CSF probe was a 0.6 kb AflII to Xhol fragment which contained most of exon 5 of the human G-CSF gene. The β-actin (Oncor, Gaithersburg, Md.) probe was used as a control probe to normalize for the total amount of RNA. The probes were labeled with alpha-32P dCTP using a random primed DNA labeling kit (Amersham, Arlington, Ill.). Following hybridization, filters were washed three times at room temperature with 1× SSC, 0.13% SDS and three times at 65° C. with 0.2× SSC, 0.1% SDS. Filters were first probed with the G-CSF specific probe and then reprobed with β-actin-probe. Exposure to x-ray film was performed overnight. Bands were excised and counted in a liquid scintillation counter (LKB, Gaithersburg, Md.), and counts obtained with the G-CSF specific probe were normalized relative to the counts obtained with the β-Actin specific probe.\nAlso shown are the effects of the solvent, DMSO, used to dissolve the chemicals and a proteinaceous positive regulator, interferon-gamma."}, "G-CSF mRNA [3]": {"system": "G-CSF mRNA", "experiment": "S1 nuclease protection, G-CSF mRNA", "format": "cell-based, human", "conditions": "for amount of G-CSF mRNA (S1 nuclease protection): 5637 cells, 18 hours", "experimental": "(§1) S1 Nuclease protection assays were carried out as described in reference 118.\n(§2) To further confirm, that compounds that had been identified in a luciferase expression assay using a G-CSF specific reporter cell line would be active in inducing transcription of the endogenous G-CSF gene, cells from the parental cell line 5637 used to construct the reporter cell line were incubated with cycloheximide (25 ug/ml), DMSO (0.5%,solvent control) and low, medium and high concentrations of the compounds 542 (10, 50, 250 μM),1255 (20, 100, 500 uM), 1793(0.25, 1.2, 6.25 μM) and 1904 (20, 100 uM) for 18 hours. RNA was extracted and the concentration of G-CSF, GM-CSF and gamma-actin mRNA was determined by the S1 protection method as described in above. The positions of G-CSF GM-CSF and gamma-actin specific protected fragments are indicated (G, GM, A) at the left side of the gel (FIG. 37)."}, "[4]": {"system": "5637 bladder carcinoma cells", "experiment": "G-CSF secretion, two-antibody sandwich immunoassay", "format": "cell-based, human", "conditions": "48 hours, serum-containing media", "experimental": "Supernatants from 5637 bladder carcinoma cells incubated with chemicals registering as positives in the G-CSF promoter/luciferase high throughput assay were assayed for secreted G-CSF protein using the two-antibody sandwich immunoassay (83). The G-CSF Assay kit manufactured by Oncogene Science, Inc. was used and the manufacturer's instructions were followed.\nThe levels of G-CSF in the cell supernatants were determined by a sandwich-antibody assay as described in above (FIG. 42)."}, "GM-CSF mRNA": {"system": "GM-CSF mRNA", "experiment": "S1 nuclease protection, GM-CSF mRNA", "format": "cell-based, human", "conditions": "5637 cells, 18 hours", "experimental": "as §1, §2"}, "MMTV promoter": {"system": "MMTV promoter", "experiment": "MMTV promoter/luciferase reporter assay (high-throughput screen I, control for specificity), M10 cells", "format": "cell-based, mouse", "conditions": "transcriptional activators, Table 2; original high-throughput assay; 6 h incubation"}, "hGH promoter": {"system": "hGH promoter", "experiment": "hGH promoter/luciferase reporter assay (high-throughput screen I), 532 cells", "format": "cell-based, rat", "conditions": "transcriptional activators, Table 2; 6 h incubation", "text": "6. a GC rat pituitary cell line, transfected with the growth hormone reporter plasmid, designated 532, deposited under ATCC Accession No. CRL 10663."}, "GM-CSF promoter": {"system": "GM-CSF promoter", "experiment": "GM-CSF promoter/luciferase induction by known inducers, GM1073, GM1088, GM1105", "format": "cell-based, human", "experimental": "6 clones generated by electroporation of U5637 cells with pGMLL103 NEO3 (FIG. 26) were subjected to further analysis as described above for G-CSF: --GM1073 (10 μg; circular); GM1081, GM1088 and GM1090 (5 μg; linear); and GM1098 and GM1105 (10 μg; linear). Clone GM1073 was selected for use in the high throughput screen.\nPromoter induction experiments were also conducted with the GM-CSF reporter cell lines GM1073, GM1088 and GM1105, which were all shown to contain correctly inserted constructs (see above). […] Luciferase expression of clones GM1088 and GM1105 was induced by PMA 2.8 fold and 2 fold, respectively, while TNF-alpha induced both clones 2 fold. All three M-CSF clones responded to a 16-hour incubation with 2,000 units/ml Interferon-gamma by a 20-fold increase of luciferase expression from the M-CSF promoter."}, "G-CSF promoter [5]": {"system": "G-CSF promoter", "experiment": "G-CSF promoter/luciferase induction by known inducers, clone G1002", "format": "cell-based, human", "conditions": "for fold induction at 0.02 µg/mL: Homo sapiens, read-out: G-CSF promoter induction", "experimental": "U5637 bladder carcinoma cells were transfected with pGVU150 (FIG. 21) or pGVU140 plus pTKNeo3 either by electroporation using a BRL (Gaithersburg, Md.) Cellporator electroporation device or by lipofection using BRL lipofectin and following the manufacturer's protocol. Clones were analyzed for luciferase expression and those testing positive expanded further and frozen in liquid nitrogen. Further analysis of 6 clones (G1002, G2005, G2071, G2085, G3014, G3031) included Southern blotting, reaction to known inducers, satisfactory attachment to microtiter plates and acceptable standard deviation in multiple luciferase expression assays. Clone G1002 was selected for use in the high throughput screen.\nCell clones with correctly integrated promoter/reporter constructs were analyzed for correct reaction to known transcriptional inducers. […] Both TNF-alpha and PMA induction levels of clone G1002 were influenced by the presence or absence of epidermal growth factor (EGF). […] The 9.3 fold induction by PMA in the absence of EGF was reduced to 5.6 fold by including EGF in the serum-free incubation mixture. Similar differences were observed, when EGF was substituted by 10% fetal calf serum."}}, "note": "Entries after “also recorded” stand apart in the source; their conditions may differ. Where two headings read alike, the source gives them in different places."}
{"compound": "CN(C)c1ccc(C(=C2C=CC(=[N+](C)C)C=C2)c2ccc([N+](C)(C)C)cc2)cc1", "note": "[#670]", "values": [{"measurement": "effect on actin mRNA (Northern blot)", "setting": "beta-actin mRNA", "value": "not of actin mRNA"}, {"measurement": "activation of the G-CSF promoter (dose response)", "setting": "G-CSF promoter [1]", "value": "specifically activated the G-CSF promoter"}, {"measurement": "EC50", "setting": "G-CSF promoter [1]", "value": "5 to 70", "unit": "µM"}, {"measurement": "effect on endogenous G-CSF mRNA (Northern blot)", "setting": "G-CSF mRNA [2]", "value": "increased G-CSF mRNA production; also recorded: stimulated production of G-CSF mRNA"}]}
{"compound": "Clc1cc(Cl)cc(Br)c1", "note": "[#1255]", "values": [{"measurement": "effect on actin mRNA (Northern blot)", "setting": "beta-actin mRNA", "value": "not of actin mRNA"}, {"measurement": "effect on endogenous G-CSF mRNA (Northern blot)", "setting": "G-CSF mRNA [2]", "value": "increased G-CSF mRNA production; also recorded: stimulated production of G-CSF mRNA"}, {"measurement": "amount of G-CSF mRNA (S1 nuclease protection)", "setting": "G-CSF mRNA [3]", "value": "increased mRNA production"}]}
{"compound": "CN(C)c1ccc(C(=C2C=CC(=[N+](C)C)C=C2)c2ccc(N(C)C)cc2)cc1", "note": "[#1780]", "values": [{"measurement": "scored as positive in repeat assays (G-CSF)", "setting": "G-CSF promoter [1]; 48 independent luciferase assays, same day", "value": "scored as positives in every single one of these assays"}, {"measurement": "activation of the G-CSF promoter (dose response)", "setting": "G-CSF promoter [1]", "value": "specifically activated the G-CSF promoter"}, {"measurement": "EC50", "setting": "G-CSF promoter [1]", "value": "5 to 70", "unit": "µM"}, {"measurement": "G-CSF secretion", "setting": "[4]", "value": "increased G-CSF secretion"}, {"measurement": "levels of endogenous G-CSF mRNA", "setting": "G-CSF mRNA [3]; method not stated at the place", "value": "stimulate levels of endogenous G-CSF mRNA"}]}
{"compound": "CN(C)C(=S)SCC#N", "note": "[#1793]", "values": [{"measurement": "amount of GM-CSF mRNA (S1 nuclease protection)", "setting": "GM-CSF mRNA", "value": "increased the amount of GM-CSF mRNA"}, {"measurement": "amount of G-CSF mRNA (S1 nuclease protection)", "setting": "G-CSF mRNA [3]", "value": "increased mRNA production"}]}
{"compound": "Nc1c2ccccc2nc2ccccc12", "note": "[#1904]", "values": [{"measurement": "amount of G-CSF mRNA (S1 nuclease protection)", "setting": "G-CSF mRNA [3]", "value": "increased mRNA production"}]}
{"compound": "O=NN(O)c1ccccc1", "note": "[Chemical #1783, Cupferron]", "values": [{"measurement": "GCSF fold induction relative to solvent control", "setting": "G-CSF promoter [1]; transcriptional activators, Table 2, 6 h incubation", "value": 6.55, "unit": "fold"}, {"measurement": "MMTV fold induction relative to solvent control", "setting": "MMTV promoter", "value": 0.89, "unit": "fold"}, {"measurement": "hGH fold induction relative to solvent control", "setting": "hGH promoter", "value": 0.32, "unit": "fold"}]}
{"compound": "CCCCCCCCCCCCCC(=O)O[C@@H]1[C@@H](C)[C@@]2(O)[C@@H](C=C(CO)C[C@]3(O)C(=O)C(C)=C[C@@H]23)[C@@H]2C(C)(C)[C@]12OC(C)=O", "note": "[PMA, phorbol-myristate-acetate, reference compound]", "values": [{"measurement": "GM-CSF promoter induction", "setting": "GM-CSF promoter; GM1073, serum-free media", "value": 7.5, "unit": "fold"}, {"measurement": "fold induction at 0.02 µg/mL", "setting": "GM-CSF promoter; Homo sapiens, GM1073, 20 ng/ml, 10.5 hours, serum-containing media", "value": 3.4}, {"measurement": "GM-CSF promoter induction", "setting": "GM-CSF promoter; clone GM1088", "value": 2.8, "unit": "fold"}, {"measurement": "GM-CSF promoter induction", "setting": "GM-CSF promoter; clone GM1105", "value": 2, "unit": "fold"}, {"measurement": "G-CSF promoter induction", "setting": "G-CSF promoter [5]; G1002, 7 hours, serum-free, absence of EGF", "value": 9.3, "unit": "fold"}, {"measurement": "fold induction at 0.02 µg/mL", "setting": "G-CSF promoter [5]; 7 h", "value": 5.6}, {"measurement": "fold induction at 0.02 µg/mL", "setting": "G-CSF promoter [5]; 10.5 h", "value": 4.4}, {"measurement": "G-CSF promoter induction", "setting": "G-CSF promoter [1]; absence of EGF", "value": 34.6, "unit": "fold"}, {"measurement": "G-CSF promoter induction", "setting": "G-CSF promoter [1]; presence of EGF", "value": 24.6, "unit": "fold"}]}
